Laboratory results reported in patent US10119966B2, “Method of detecting auto-antibodies from patients suffering from rheumatoid arthritis, a peptide and assay kit” (STICHTING VOOR DE TECHNISCHE WETENSCHAPPEN, priority 2001, dated 2018).
Non-standard residues stand in square brackets, D forms with d. No end group written: not given here. Cit = NC(=O)NCCC[C@H](N)C(=O)O

Legend:
Format in all cases: binding, human
[1] = tested on: autoantibodies from patients suffering from rheumatoid arthritis (RA sera); assay: ELISA of coated peptides with sera from RA patients; conditions: for Sensitivity [%] cyclic / Sensitivity [%] Linear: 318 RA sera; for Sensitivity [%] Linear: linear variant; for assessment of cyclic variants (in words): cysteine-bromoacetic acid cyclisation
Protocol: The most interesting peptides were synthesised in a slightly larger quantity to form a linear and a cyclic variant, and in most cases in a citrulline and arginine (=control) variant. These peptides were tested for reactivity with a series of sera from RA patients. The peptides were coated to ELISA plates and incubated with sera from RA patients. Each serum was tested in duplicate. Sera from healthy persons were used as negative control. […]
(§1) Using the above-described methods, seven XG peptide units were tested for reactivity with the 318 sera mentioned in Table 2 from patients suffering from rheumatoid arthritis. The specificity was determined with the aid of sera mentioned in Table 2 from control patients and normal donors.
(§2) In accordance with the methods described in this document, five XnonG peptide units were tested for reactivity with the same 318 sera mentioned in Table 2 from patients suffering from rheumatoid arthritis. Specificity was again determined with the aid of the sera mentioned in Table 2 from control patients and normal donors.

[2] = tested on: sera from control patients and normal donors; assay: ELISA with sera from patients with other diseases and normal sera (specificity); conditions: for % positive sera: cyclic peptide; for Specificity [%] cyclic: cyclic variant; for Specificity [%] cyclic / Specificity [%] linear: control patients and normal donors of Table 2; for Specificity [%] linear: linear variant
Protocol: (§3) The most interesting peptides were synthesised in a slightly larger quantity to form a linear and a cyclic variant, and in most cases in a citrulline and arginine (=control) variant. These peptides were tested for reactivity with a series of sera from RA patients. The peptides were coated to ELISA plates and incubated with sera from RA patients. Each serum was tested in duplicate. Sera from healthy persons were used as negative control.
The above table represents ELISAs with sera obtained from patients suffering from RA and from patients suffering from various other autoimmune diseases. […] The arginine variant of peptide 0002-36 (R on position 0 and +2, i.e., instead of Cit in the formula) was also tested and shown to be negative with all tested RA and normal sera.
as §1, §2

[3] = tested on: XG-negative sera (RA sera comprising no XG reactive antibodies); assay: ELISA of XnonG peptides with RA sera that do not react with XG peptides; conditions: for Sensitivity [%] cyclic: cyclic variant; for Sensitivity [%] cyclic / Sensitivity [%] Linear: 80 of the 318 RA sera that did not react with any XG peptide of Table 6; for Sensitivity [%] Linear: linear variant
Protocol: as §3
The percentages mentioned in table 8 therefore show the percentage of the sera that did comprise antibodies to XnonG peptide units but comprised no XG reactive antibodies.

[4] = ELISA with 186 RA sera, cyclic variants
[5] = XnonG peptide units, cyclic variant
[6] = XG peptide units, cyclic variant
[7] = two cohorts of RA sera, in total 318 sera

0002-36 (cyclic): cyclic variant of peptide 0002-36, cyclisized by the cysteine-bromoacetic acid method (HQFRF[Cit]G[Cit]SRAA; thioether (positions not given here); not fully specified (bridges); printed as H Q F R F Cit G Cit S R A A; also: cyclised by cysteine-bromoacetic acid method, no Cys in given chain, ring places not given here)
positive sera ([1]; ELISA with 132 RA sera): 71%
positive sera (number/total) ([1]; ELISA with 132 RA sera): 94/132
positive sera [1, 4]: 71%
% positive sera ([1]; RA sera, N=318, cyclic peptide): 71%
% positive sera ([2]; Colitis ulcerosa sera, N=40): 0%
% positive sera ([2]; Crohn's disease sera, N=40): 0%
% positive sera ([2]; Infectious diseases (malaria, chlamydia, mycoplasma, etc.) sera, N=250): 1%
% positive sera ([2]; Normal human serum, N=84): 0%
% positive sera ([2]; Osteoarthritis sera, N=29): 0%
% positive sera ([2]; PM, Polymyositis sera, N=11): 0%
% positive sera ([2]; Prim Sjögren's syndrome sera, N=34): 3%
% positive sera ([2]; Psoriasis sera, N=10): 0%
% positive sera ([2]; SSc Scleroderma sera, N=10): 0%
% positive sera ([2]; Systemic Lupus Erythematodes sera, N=24): 0%
% positive sera ([2]; Vasculitis sera, N=30): 0%

0002-63 (cyclic): cyclic variant of peptide 0002-63 (HQFRF[Cit]GWSRAA; thioether (positions not given here); also: cyclised by cysteine-bromoacetyl thioether, Cys and bromoacetyl not shown in chain)
positive sera [1, 4]: 71%

A R F Q M Cit H Cit R L I R (ARFQM[Cit]H[Cit]RLIR) [0107-35]
reacts with % of the sera that are not reactive with cyclic 0002-36 ([3]; cyclic form): 18%
Sensitivity [%] cyclic [3]: 18%
Sensitivity [%] Linear [3]: 17%
Sensitivity [%] cyclic [1, 5]: 61%
Sensitivity [%] Linear ([1]; XnonG peptide units): 52%
Specificity [%] cyclic ([2]; XnonG peptide units): 99%
Specificity [%] linear ([2]; XnonG peptide units): 98%

A R F Q M R H Cit R L I R (ARFQMRH[Cit]RLIR) [0113-30]
Sensitivity [%] cyclic [3]: 19%
Sensitivity [%] Linear [3]: 18%
Sensitivity [%] cyclic [1, 5]: 71%
Sensitivity [%] Linear ([1]; XnonG peptide units): 49%
Specificity [%] cyclic ([2]; XnonG peptide units): 100%
Specificity [%] linear ([2]; XnonG peptide units): 99%

G V Y L V R Cit L Cit M M R [0218-36]
Sensitivity [%] cyclic [3]: 17%
Sensitivity [%] Linear [3]: 17%
Sensitivity [%] cyclic [1, 5]: 70%
Sensitivity [%] Linear ([1]; XnonG peptide units): 50%
Specificity [%] cyclic ([2]; XnonG peptide units): 98%
Specificity [%] linear ([2]; XnonG peptide units): 98%

GFFSA[Cit]GHRPLD [0101-7]
reacted with % of RA sera ([1]; cyclic variant, 186 RA-sera): 45%
reacted with % of the sera ([1]; linear peptide): 55%

H Q F R F Cit G Cit S R A A (HQFRF[Cit]G[Cit]SRAA) [0002-36 (linear)]
positive sera ([1]; ELISA with 132 RA sera): 61%
positive sera (number/total) ([1]; ELISA with 132 RA sera): 80/132

H Q F R F Cit G Cit S R A A (HQFRF[Cit]G[Cit]SRAA) [0002-36]
reactivity with RA sera (in words) [1]: very satisfactory
Sensitivity [%] cyclic [1, 6]: 71%
Sensitivity [%] Linear ([1]; XG peptide units): 61%
assessment of cyclic variants (in words) ([1]; cyclic variants): of interest
OD-values, cyclic versus linear variant [1, 7]: much higher
frequency of reaction, cyclic versus linear variant [1, 7]: react more frequently (and better) than the linear variant
Specificity [%] cyclic ([2]; XG peptide units): 99%
Specificity [%] linear ([2]; XG peptide units): 99%

H Q K R G Cit G W S R A A (HQKRG[Cit]GWSRAA) [0002-27]
Sensitivity [%] cyclic [1, 6]: 71%
Sensitivity [%] Linear ([1]; XG peptide units): 56%
assessment of cyclic variants (in words) ([1]; cyclic variants): of interest
Specificity [%] cyclic ([2]; XG peptide units): 98%
Specificity [%] linear ([2]; XG peptide units): 98%

H Q K W R Cit G R S Cit A A (HQKWR[Cit]GRS[Cit]AA) [0002-37]
Sensitivity [%] cyclic [1, 6]: 70%
Sensitivity [%] Linear ([1]; XG peptide units): 60%
Specificity [%] cyclic ([2]; XG peptide units): 98%
Specificity [%] linear ([2]; XG peptide units): 98%

H Q R R T Cit G G S R A A (HQRRT[Cit]GGSRAA) [0002-31]
Sensitivity [%] cyclic [1, 6]: 69%
Sensitivity [%] Linear ([1]; XG peptide units): 51%
assessment of cyclic variants (in words) ([1]; cyclic variants): of interest
Specificity [%] cyclic ([2]; XG peptide units): 98%
Specificity [%] linear ([2]; XG peptide units): 98%

H Q R R V Cit G W S R A A (HQRRV[Cit]GWSRAA) [0002-29]
Sensitivity [%] cyclic [1, 6]: 70%
Sensitivity [%] Linear ([1]; XG peptide units): 57%
assessment of cyclic variants (in words) ([1]; cyclic variants): of interest
Specificity [%] cyclic ([2]; XG peptide units): 98%
Specificity [%] linear ([2]; XG peptide units): 98%

HQFRF[Cit]GWSRAA [0002-63]
reactivity with RA sera (in words) [1]: very satisfactory
Sensitivity [%] cyclic [1, 6]: 71%
Sensitivity [%] Linear ([1]; XG peptide units): 60%
assessment of cyclic variants (in words) ([1]; cyclic variants): of interest
Specificity [%] cyclic ([2]; XG peptide units): 98%
Specificity [%] linear ([2]; XG peptide units): 98%

HQRKW[Cit]GASRAA [0002-32]
Sensitivity [%] cyclic [1, 6]: 71%
Sensitivity [%] Linear ([1]; XG peptide units): 61%
Specificity [%] cyclic ([2]; XG peptide units): 98%
Specificity [%] linear ([2]; XG peptide units): 98%

HQWNR[Cit]GWSRAA [0002-35]
reactivity with RA sera (in words) [1]: very satisfactory

K P Y T V Cit K F M R R P (KPYTV[Cit]KFMRRP) [0107-32]
further % added ([3]; cyclic peptide, added to cyclic 0107-35): 8%
Sensitivity [%] cyclic [3]: 18%
Sensitivity [%] Linear [3]: 15%
Sensitivity [%] cyclic [1, 5]: 63%
Sensitivity [%] Linear ([1]; XnonG peptide units): 48%
Specificity [%] cyclic ([2]; XnonG peptide units): 98%
Specificity [%] linear ([2]; XnonG peptide units): 98%

Y S F V W Cit S H A R P R (YSFVW[Cit]SHARPR) [0107-45]
Sensitivity [%] cyclic [3]: 18%
Sensitivity [%] Linear [3]: 16%
Sensitivity [%] cyclic [1, 5]: 69%
Sensitivity [%] Linear ([1]; XnonG peptide units): 51%
Specificity [%] cyclic ([2]; XnonG peptide units): 99%
Specificity [%] linear ([2]; XnonG peptide units): 98%

arginine variant of peptide 0002-36: R on position 0 and +2, i.e., instead of Cit in the formula; control variant (HQFRFRGRSRAA) [reference compound]
reactivity with RA sera ([1]; all tested RA sera): negative
reactivity with normal sera ([2]; all tested normal sera): negative
